The logD is lipophilicity at a set pH, counting ionised and neutral species. High values mean higher lipophilicity, low ones lower lipophilicity.

The data set in a line: physchem. Conditions: octan-1-ol/water.

`COc1ccc2c3c1OC1C(O)C=CC4C(C2)N(C)CCC341` (stereo unspecified): under “pH 7.4”, the pH-dependent lipophilicity (logD) turned out to be 0.8.

As to `C[C@H]1CCCN1CCc1cc2cc(-c3ccc(C#N)cc3)ccc2o1`, for the setting “pH 7.4, LogD7.4”, the pH-dependent lipophilicity (logD) stood at 3.25.

In the case of `CN(C)C(=O)N[C@H]1CC[C@H](CN2[C@@H]3CC[C@H]2C[C@@H](Oc2cccc(C(N)=O)c2)C3)CC1`, the pH-dependent lipophilicity (logD) (pH 7.4) was -0.07. On the same count and under the same terms, under `C=C(C)[C@H]1Cc2c(ccc3c2O[C@@H]2COc4cc(OC)c(OC)cc4[C@@H]2C3=O)O1` [ROTENONE] stands 3.57. Take `COc1ccc(S(=O)(=O)Nc2ccc(-c3ccccc3)n(CC(=O)NC(C(=O)C(F)(F)F)C(C)C)c2=O)cc1` (stereo unspecified): the logD (pH 7.4, LogD7.4) amounted to 2.5.

The compound `Nc1ccc(Cl)c(-c2nc3ncccc3o2)c1` gave a logD (pH 7.4, LogD7.4) of 1.97. On the same count and under the same terms, as for `O=[N+]([O-])c1ccc(C=NO)o1`, the figure is 1.31; as for `O=c1cc(N2CCOCC2)oc2cc(O)ccc12`, 1; as for `CC(C)C(NC(=O)Cn1c(-c2ccccc2)ccc(NC(=O)OCc2ccncc2)c1=O)C(=O)C(F)(F)F` (stereo unspecified), 2.41. Same read-out and setting: under `CCC(c1nc2ccsc2c(=O)n1Cc1ccccc1)N(CCCN)C(=O)c1ccc(OC)cc1` (stereo unspecified) stands 1.39; under `C[C@@H]1CN(c2c(F)c(N)c3c(=O)c(C(=O)O)cn(C4CC4)c3c2F)C[C@H](C)N1` [SPARFLOXACIN], -0.15; under `Cc1cccc(S(=O)(=O)NC(=O)N2CCC(N3CCC(Oc4ccc(Cl)c(Cl)c4)CC3)CC2)c1`, 1.84. The same measure, in the same setting: as for `CC(C)[C@@H](CO)NS(=O)(=O)c1ccc(Cl)s1`, the figure is 2.3; as for `CC(C)C(NC(=O)Cn1c(-c2ccccc2)ccc(NC(=O)NCc2cccnc2)c1=O)C(=O)C(F)(F)F` (stereo unspecified), 2.84; as for `Cn1ccc2c(-c3nc(CS(C)(=O)=O)cc(N4CCOCC4)n3)cccc21`, 2.

Consider `Cc1ccc(NC(=O)c2cccc(N(C)C)c2)cc1NC(=O)c1ccc(OC(C)C)cc1`, for which, under “pH 7.4, LogD7.4”, the logD amounted to 3.1. The same measure, in the same setting: as for `O=C(c1ccc(OCCCc2cnc[nH]2)cc1)C1CC1` [CIPROXIFAN], the figure is 2.68. `CCn1cc(C(=O)O)c(=O)c2ccc(C)nc21` [NALIDIXIC ACID] gave a pH-dependent lipophilicity (logD) (pH 7.4) of -0.1. As to `COc1cc2ncnc(Nc3cc(NC(=O)c4cccc(N(C)C)c4)ccc3Cl)c2cc1OC`, the logD (pH 7.4, LogD7.4) is 4.26. The same measure, in the same setting: under `CC[C@H](NC(=O)c1c([S+](C)[O-])c(-c2ccc(F)cc2)nc2ccccc12)c1ccccc1` (stereo partly specified) stands 3.72; under `N#Cc1cccc(OC[C@@H](O)CNC2CCN(Cc3ccc(Cl)c(Cl)c3)CC2)c1`, 3.09.

Take `Nc1ccc(C2(c3ccc(N)cc3)CCCCC2)cc1`: for the setting “pH 7.4”, the logD is 3.2. For `COC(=O)N1CCOc2cc(COc3ccccc3)cnc21`, the logD (pH 7.4, LogD7.4) was found to be 2.5. The compound `CN1CCc2c1nc1ccccc1c2NC(=O)Cc1ccccc1` had a logD (pH 7.4, LogD7.4) of 2.8.

Compound `CNC1=Nc2ncccc2C(c2ccns2)=NC1c1cccs1` (stereo unspecified) came in with a pH-dependent lipophilicity (logD) (pH 7.4) of 2.15. On to `COc1ccccc1C(=O)Nc1nc2ccccc2[nH]1`, for which the log distribution coefficient (logD) (pH 7.4, LogD7.4) is 2.9.

As for `OCCN1CC=CC[C@H](c2ccc(Cl)c(Cl)c2)C1`, the logD (pH 7.4, LogD7.4) is 2.37. On the same count and under the same terms, as for `CN(C)CCCNC(=O)c1nc(Cl)c(N)nc1N`, the figure is -1; as for `COc1ccc2nc(N[C@H]3CCC[C@H](NCc4ccsc4)C3)cc(C)c2c1`, 2.41; as for `CC(C)C(NC(=O)Cn1c(-c2ccccc2)ccc(NS(=O)(=O)c2ccccc2)c1=O)C(=O)C(F)(F)F` (stereo unspecified), 2.26. The same measure, in the same setting: as for `CC(C)(C)NC(=O)[C@@H]1CN(Cc2cccnc2)CCN1C[C@@H](O)C[C@@H](Cc1ccccc1)C(=O)N[C@H]1c2ccccc2C[C@H]1O`, the figure is 2.9. Still for that read-out and setting: under `O=C(COc1ccccc1O)NC1CCCC1` stands 2.31; under `C[C@@H]1CN(C(=O)[C@@](C)(O)C(F)(F)F)[C@@H](C)CN1C(=O)c1ccc(C#N)cc1`, 1.5; under `Cc1nc(C(=O)[C@@H](C)Oc2ccc(SCCCCCc3ccccc3)cc2)sc1CCCC(=O)O`, 3.58. For the setting “pH 7.4, LogD7.4”, `C#Cc1cccc(Nc2nc3cc(C(=O)O)ccc3c3cncnc23)c1` registered a logD of 0.92. Take `O=C(O)C(c1ccccc1)N1CCO[C@@H](CN2CCC(Oc3ccc(Cl)c(Cl)c3)CC2)C1` (stereo partly specified): the logD (pH 7.4, LogD7.4) was 1.71.

Source of the values: ChEMBL document CHEMBL3301361, “Experimental in vitro DMPK and physicochemical data on a set of publicly disclosed compounds”.
